Test results: PubChem BioAssay (NCI)
“And” between values parts separate entries of the source, which are not always exact repeats. Equal values may be shown once.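 Tested at 5 concentrations; 48 h exposure; 96-well plates; endpoints linearly interpolated, else capped at highest concentration. Abbreviation: GI50, concentration required for 50% inhibition of growth. Definition used: TGI = concentration required for complete inhibition of growth.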

What was measured:
Assay in all cases: NCI tumour cell line growth inhibition, 48 h
MDA-N = tested on: MDA-N
DU-145 prostate = tested on: DU-145 prostate
MOLT-4 leukemia = tested on: MOLT-4 leukemia
NCI-H226 lung = tested on: NCI-H226 lung
SR leukemia = tested on: SR leukemia
786-0 renal = tested on: 786-0 renal
HCT-116 colon = tested on: HCT-116 colon
P388/ADR leukemia = tested on: P388/ADR leukemia
CAKI-1 renal = tested on: CAKI-1 renal
ACHN renal = tested on: ACHN renal
SF-539 CNS = tested on: SF-539 CNS
BT-549 breast = tested on: BT-549 breast
MDA-MB-231 breast = tested on: MDA-MB-231 breast
T-47D breast = tested on: T-47D breast
MALME-3M melanoma = tested on: MALME-3M melanoma
DMS 114 small cell lung = tested on: DMS 114 small cell lung
UO-31 renal = tested on: UO-31 renal
P388 leukemia = tested on: P388 leukemia
HOP-18 NSCLC = tested on: HOP-18 NSCLC
SNB-19 CNS = tested on: SNB-19 CNS
PC-3 prostate = tested on: PC-3 prostate
TK-10 renal = tested on: TK-10 renal
M14 melanoma = tested on: M14 melanoma
NCI-H23 lung = tested on: NCI-H23 lung
MDA-MB-435 = tested on: MDA-MB-435

For `C[C@@H]1O[C@@H](O[C@H]2CC[C@]3(C=O)[C@H]4CC[C@]5(C)[C@@H](c6ccc(=O)oc6)CC[C@]5(O)[C@@H]4CC[C@]3(O)C2)[C@H](O)[C@H](O)[C@H]1O[C@@H]1O[C@H](CO)[C@@H](O)[C@H](O)[C@H]1O`, the GI50 (MDA-N) was 17.3 nM, the TGI (MDA-N) was 59.5 nM and 33.3 nM and the GI50 (DU-145 prostate) was 12.9 nM. For the same compound, the TGI (DU-145 prostate) was 8.37 nM and 42.4 nM, the TGI (MOLT-4 leukemia) was 14.4 nM and 70.8 nM and the GI50 (NCI-H226 lung) was 40.9 nM. For the same compound, the TGI (NCI-H226 lung) was 57.6 nM and 43.7 nM and 93.3 nM, the TGI (SR leukemia) was 868 nM and the TGI (786-0 renal) was 16.4 nM and 17.4 nM. For the same compound, the TGI (HCT-116 colon) was 35.8 nM and 19.4 nM, the TGI (P388/ADR leukemia) was 355000 nM and the GI50 (CAKI-1 renal) was 37.5 nM. For the same compound, the TGI (CAKI-1 renal) was 32.2 nM and 25.1 nM and 37.9 nM, the TGI (ACHN renal) was 19.5 nM and 23.3 nM and the TGI (SF-539 CNS) was 21 nM and 24.5 nM. The GI50 (BT-549 breast) was 25.2 nM, the TGI (BT-549 breast) was 28.5 nM and 70.1 nM and the TGI (MDA-MB-231 breast) was 129 nM. The GI50 (T-47D breast) was 24 nM, the TGI (T-47D breast) was 46.5 nM and 56.4 nM and the GI50 (MALME-3M melanoma) was 14.2 nM and 20.6 nM. For the same compound, the TGI (MALME-3M melanoma) was 34.3 nM and 47.7 nM, the GI50 (DMS 114 small cell lung) was < 0.000375 nM and the GI50 (UO-31 renal) was 37.5 nM. For the same compound, the TGI (UO-31 renal) was 51.2 nM and 47.9 nM, the TGI (P388 leukemia) was 176000 nM and the TGI (HOP-18 NSCLC) was 21.9 nM. The GI50 (SNB-19 CNS) was 30.1 nM and 37.5 nM, the TGI (SNB-19 CNS) was 141 nM and 118 nM and 64.3 nM and the GI50 (PC-3 prostate) was 17.8 nM. The TGI (PC-3 prostate) was 28.5 nM and 33.6 nM, the GI50 (TK-10 renal) was 13.2 nM and the TGI (TK-10 renal) was 16 nM and 56.9 nM. For the same compound, the GI50 (M14 melanoma) was 30.4 nM, the TGI (M14 melanoma) was 48.3 nM and 125 nM and the GI50 (NCI-H23 lung) was < 0.000375 nM. For the same compound, the GI50 (MDA-MB-435) was 26.1 nM and the TGI (MDA-MB-435) was 34.4 nM and 62 nM.
